From ChEMBL document CHEMBL1201862, “PubChem BioAssay data set” (2004)
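1) Cells in 96-well plates. 2) Compound, 48 h, 5 concentrations. 3) Linear interpolation between surrounding doses. 4) Unreached endpoint = highest concentration. GI50 = concentration required for 50% inhibition of growth.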 Calls of active or inactive are those of the source. No stated cut-off is given here; in the data, active = GI50 up to about 1.1 µM and inactive = higher.

Key:
Test in all cases: NCI-60 cell line screen, 48 h
SF-539 = tested on: SF-539
SNB-75 = tested on: SNB-75
OVCAR-3 = tested on: OVCAR-3
SK-MEL-28 = tested on: SK-MEL-28
UO-31 = tested on: UO-31
HL-60 = tested on: HL-60
NCI-H23 = tested on: NCI-H23
HCC 2998 = tested on: HCC 2998
SK-MEL-5 = tested on: SK-MEL-5
MOLT-4 = tested on: MOLT-4
Malme-3M = tested on: Malme-3M
HCT-15 = tested on: HCT-15
TK-10 = tested on: TK-10
RPMI-8226 = tested on: RPMI-8226
IGROV-1 = tested on: IGROV-1
NCI-H522 = tested on: NCI-H522
HOP-92 = tested on: HOP-92

SMILES | GI50 (SF-539) | GI50 (SNB-75) | GI50 (OVCAR-3) | GI50 (SK-MEL-28) | GI50 (UO-31) | GI50 (HL-60) | GI50 (NCI-H23) | GI50 (HCC 2998) | GI50 (SK-MEL-5) | GI50 (MOLT-4) | GI50 (Malme-3M) | GI50 (HCT-15) | GI50 (TK-10) | GI50 (RPMI-8226) | GI50 (IGROV-1) | GI50 (NCI-H522) | GI50 (HOP-92)
CCCCCC(=O)C(C)C1=Nc2nnc(CCCCCCCc3nnc4n3C(=O)C(C(C)C(=O)CCCCC)=N4)n2C1=O (stereo not drawn) | > 100 µM (inactive) | > 100 µM (inactive) | > 100 µM (inactive) | > 100 µM (inactive) | > 100 µM (inactive) | > 100 µM (inactive) | > 100 µM (inactive) | > 100 µM (inactive) | > 100 µM (inactive) | > 100 µM (inactive) | > 100 µM (inactive) | > 100 µM | > 100 µM (inactive) | > 100 µM (inactive) | > 100 µM (inactive) | > 100 µM (inactive) | –
CCCN(CCC)C(=O)c1c([N+](=O)[O-])cc(C(F)(F)F)cc1[N+](=O)[O-] | 41.6 µM (inactive) | > 100 µM (inactive) | 10.7 µM (inactive) | > 100 µM (inactive) | > 100 µM (inactive) | 20 µM (inactive) | 25.4 µM (inactive) | – | – | 52.6 µM (inactive) | – | 27 µM | > 100 µM (inactive) | 47.6 µM (inactive) | 58.2 µM (inactive) | 23.2 µM (inactive) | 34.5 µM (inactive)
C[C@H]1C(=O)CC[C@]2(C)CCC(C(C)(C)O)CC12O (stereo partly drawn) | > 100 µM (inactive) | 12.8 µM (inactive) | > 100 µM (inactive) | > 100 µM (inactive) | > 100 µM (inactive) | > 100 µM (inactive) | > 100 µM (inactive) | > 100 µM (inactive) | > 100 µM (inactive) | > 100 µM (inactive) | > 100 µM (inactive) | > 100 µM | > 100 µM (inactive) | > 100 µM (inactive) | > 100 µM (inactive) | > 100 µM (inactive) | > 100 µM (inactive)
O=C(c1cccc2ccccc12)N1CCC(C2CCN(C(=O)c3cccc4ccccc34)CC2)CC1 | > 100 µM (inactive) | 23.8 µM (inactive) | > 100 µM (inactive) | > 100 µM (inactive) | > 100 µM (inactive) | 65.5 µM (inactive) | > 100 µM (inactive) | – | > 100 µM (inactive) | > 100 µM (inactive) | > 100 µM (inactive) | > 100 µM | > 100 µM (inactive) | 91.8 µM (inactive) | > 100 µM (inactive) | > 100 µM (inactive) | > 100 µM (inactive)
N#CSCc1nc2ccc(Cl)cc2c(-c2ccccc2)[n+]1[O-] | > 10 µM (inactive) | 32.7 µM (inactive) | 26.8 µM (inactive) | 14.5 µM (inactive) | 18.7 µM (inactive) | 21.5 µM (inactive) | – | 15.6 µM (inactive) | – | 14.6 µM (inactive) | 24.6 µM (inactive) | 17.3 µM | > 100 µM (inactive) | 25.3 µM (inactive) | > 10 µM (inactive) | – | 16 µM (inactive)
COc1ccc(C(=O)Nc2ccccc2)cc1[N+](=O)[O-] | > 100 µM (inactive) | 59.7 µM (inactive) | 58.9 µM (inactive) | > 100 µM (inactive) | 81.5 µM (inactive) | – | > 100 µM (inactive) | – | 31.5 µM (inactive) | 97.5 µM (inactive) | > 100 µM (inactive) | > 100 µM | > 100 µM (inactive) | > 100 µM (inactive) | > 100 µM (inactive) | 87.9 µM (inactive) | –
COC(=O)CC(=O)OC | > 100 µM (inactive) | > 100 µM (inactive) | > 100 µM (inactive) | – | > 100 µM (inactive) | > 100 µM (inactive) | > 100 µM (inactive) | > 100 µM (inactive) | > 100 µM (inactive) | > 100 µM (inactive) | > 100 µM (inactive) | > 100 µM | > 100 µM (inactive) | > 100 µM (inactive) | > 100 µM (inactive) | – | > 100 µM (inactive)
CN(C)C(=S)/N=c1\ss/c(=N\C(=S)N(C)C)n1Cc1ccco1 | > 100 µM (inactive) | > 100 µM (inactive) | – | > 100 µM (inactive) | > 100 µM (inactive) | > 100 µM (inactive) | – | > 100 µM (inactive) | > 100 µM (inactive) | > 100 µM (inactive) | > 100 µM (inactive) | > 100 µM | > 100 µM (inactive) | > 100 µM (inactive) | > 100 µM (inactive) | > 100 µM (inactive) | –
CC(=O)Nc1ccc(-c2nnc(SCC(=O)Nc3cccc(Cl)c3)o2)cc1 | 20.1 µM (inactive) | 20 µM (inactive) | 7.11 µM (inactive) | 17.9 µM (inactive) | 27.7 µM (inactive) | 18.2 µM (inactive) | 9.79 µM (inactive) | 18.6 µM (inactive) | 13.9 µM (inactive) | 19.1 µM (inactive) | 12.4 µM (inactive) | 14.9 µM | 19.6 µM (inactive) | 15 µM (inactive) | 8.97 µM (inactive) | 5.86 µM (inactive) | –
c1ccc2c(c1)N=C(c1cccc3ccccc13)CC(c1cccc3ccccc13)S2 (stereo not drawn) | 4.92 µM (inactive) | 5.83 µM (inactive) | 2.77 µM (inactive) | 7.36 µM (inactive) | 11.2 µM (inactive) | 0.467 µM (active) | 3.57 µM (inactive) | 4.21 µM (inactive) | 8.95 µM (inactive) | 2.24 µM (inactive) | 14.9 µM (inactive) | 4.26 µM | 12.2 µM (inactive) | 1.9 µM (inactive) | 5.68 µM (inactive) | 2.54 µM (inactive) | –
CCOC(=O)c1[nH]c2c(OC)n[n+]([O-])cc2c1[N+](=O)[O-] | 27.9 µM (inactive) | 9.23 µM (inactive) | 20.6 µM (inactive) | 15.7 µM (inactive) | 22 µM (inactive) | 19.7 µM (inactive) | 10 µM (inactive) | 10 µM (inactive) | – | 31.9 µM (inactive) | 18.3 µM (inactive) | 18.4 µM | 16.4 µM (inactive) | 18.1 µM (inactive) | 54.8 µM (inactive) | 19.3 µM (inactive) | –
Cc1cc(C)nc(NS(=O)(=O)c2ccc(NC(=O)c3cccn4c(=O)c5ccccc5nc34)cc2)n1 | 38.5 µM (inactive) | 32.7 µM (inactive) | – | 38.5 µM (inactive) | 27.5 µM (inactive) | 21.5 µM (inactive) | 35.3 µM (inactive) | > 100 µM (inactive) | 37.9 µM (inactive) | 23.8 µM (inactive) | – | 31 µM | > 100 µM (inactive) | – | > 100 µM (inactive) | 21.5 µM (inactive) | –
O=C1[C@@H]2C(c3cccc([N+](=O)[O-])c3)=NO[C@@H]2C(=O)N1c1ccc(Cc2ccc(N3C(=O)[C@H]4C(c5cccc([N+](=O)[O-])c5)=NO[C@H]4C3=O)cc2)cc1 | 35.9 µM (inactive) | > 100 µM (inactive) | > 100 µM (inactive) | > 100 µM (inactive) | > 100 µM (inactive) | – | – | – | – | > 100 µM (inactive) | > 100 µM (inactive) | > 100 µM | > 100 µM (inactive) | > 100 µM (inactive) | > 100 µM (inactive) | > 100 µM (inactive) | > 100 µM (inactive)
Cc1cc(O)cc2c1O[C@@]1(C)CCC3[C@@]4(C)CC[C@H](O)C(C)(C)C4CC[C@@]3(C)[C@H]1C2 (stereo partly drawn) | 2.23 µM (inactive) | 3.03 µM (inactive) | 6.31 µM (inactive) | 6.82 µM (inactive) | 8.45 µM (inactive) | 2.99 µM (inactive) | 10 µM (inactive) | – | 5.61 µM (inactive) | 1.55 µM (inactive) | 9.06 µM (inactive) | 3.03 µM | 12.5 µM (inactive) | 2.18 µM (inactive) | 13.5 µM (inactive) | 6.52 µM (inactive) | 5.09 µM (inactive)
Cc1ccc(S(=O)(=O)N/N=C2\CCCCC23CCC(=O)NC3)cc1 (stereo not drawn) | > 100 µM (inactive) | > 100 µM (inactive) | > 100 µM (inactive) | > 100 µM (inactive) | > 100 µM (inactive) | > 100 µM (inactive) | – | > 100 µM (inactive) | > 100 µM (inactive) | > 100 µM (inactive) | > 100 µM (inactive) | > 100 µM | > 100 µM (inactive) | > 100 µM (inactive) | > 100 µM (inactive) | > 100 µM (inactive) | –
COC(=O)CC1C(=O)OCc2c1cc1n(c2=O)Cc2c-1nc1ccccc1c2OC (stereo not drawn) | – | 6.53 µM (inactive) | – | > 100 µM (inactive) | 16.3 µM (inactive) | 18.5 µM (inactive) | 17.3 µM (inactive) | > 100 µM (inactive) | 61.1 µM (inactive) | 3.93 µM (inactive) | > 100 µM (inactive) | > 100 µM | > 100 µM (inactive) | > 100 µM (inactive) | > 100 µM (inactive) | 25.8 µM (inactive) | 20.7 µM (inactive)
O=C(CC1(O)C(=O)Nc2ccccc21)c1ccncc1 (stereo not drawn) | > 100 µM (inactive) | > 100 µM (inactive) | – | > 100 µM (inactive) | > 100 µM (inactive) | > 100 µM (inactive) | > 100 µM (inactive) | > 100 µM (inactive) | > 100 µM (inactive) | > 100 µM (inactive) | – | > 100 µM | – | > 100 µM (inactive) | > 100 µM (inactive) | > 100 µM (inactive) | > 100 µM (inactive)
O=C1CC(O)C=C1Nc1ccc(Cl)cc1 (stereo not drawn) | 61.7 µM (inactive) | 26.5 µM (inactive) | 71.6 µM (inactive) | 56.2 µM (inactive) | 31.3 µM (inactive) | 13.1 µM (inactive) | 29 µM (inactive) | 12.1 µM (inactive) | 30.5 µM (inactive) | 16.4 µM (inactive) | 59.8 µM (inactive) | – | > 100 µM (inactive) | – | 43.1 µM (inactive) | 11.2 µM (inactive) | 49.1 µM (inactive)
